In brackets after ≈: the same amount, converted by molar mass.
Biological target: T1, Type 1 collagenase enzyme
T1 construct: gene colG; native collagenase preparation isolated from the bacterium; type 1 is normally a mixture of ColG and ColH
Test: FALGPA hydrolysis, ninhydrin absorbance at […] nm
Format: biochemical, Hathewaya histolytica
Details: FALGPA substrate; 50 mM tricine pH 7.4; 37 °C; 20 min preincubation

## O=C(O)CN(CCN(CC(=O)O)CC(=O)O)CC(=O)O [EDTA]
  IC50 ± SD (inhibition percentage (IP) ± SD) / Anti-collagenase: 315.12 ± 2.21 µg/mL (≈ 1080 µM)
